Reference: US7626027B2, “Substituted 1H-pyrrolo[2,3-c]pyridine-2-carboxamides and related analogs as inhibitors of casein kinase Iε” (Aventis Pharmaceuticals Inc, priority 2003, dated 2009)
Where two headings read alike, the source gives them in different places.

How the values were obtained:
[1] = biological target: T1, casein kinase 1ε (Homo sapiens, UniProt P49674); test: Casein Kinase Epsilon 33P-ATP Filter Plate Assay; type: biochemical
T1 construct: made in house
Description: Casein Kinase Epsilon ^33P-ATP Filter Plate Assay for Screening CK1 Inhibitors Purpose: This assay measures the effect of compounds to inhibit the phosphorylation of the substrate casein by the enzyme casein kinase 1ε using an in vitro ^33P-ATP filtration assay.
Equipment: • Beckman Biomek 2000 Liquid Handling Robot • Beckman Multimek 96 Automated 96 Channel Pipettor • Millipore Vacuum Manifold Basic Kit # MAVM0960R • Titertek Multidrop Liquid Dispenser • Packard TopCount NXT Liquid Scintillation Counter
Enzyme: • Casein Kinase 1ε final concentration 0.58 mg/ml obtained from fermentation and purification processes performed by Aventis Pharmaceuticals Inc., France. The above are stored as 100 μL aliquots at minus 80° C.
Compounds: • Compounds for testing are supplied as frozen 10 mM compound stock dissolved in 100% DMSO. Assay Conditions:
Final total assay volume per well is equal to 50 μL made up as follows: • 5 μL of diluted compound stock ([…], 0.1, 0.01 or 0.001 μM), • 5 μL of dephosphorylated casein final concentration 0.2 μg/μL, • 20 μL of CK1ε final concentration 3 ng/μL, and • 20 μL of γ-^33P-ATP final concentration 0.02 μCi/μL mixed with cold ATP (10 μM final). Methodology: • 1. 500 mL of fresh assay buffer is made: 50 mM Tris pH 7.5, 10 mM MgCl2, 2 mM DTT and 1 mM EGTA • 2. Compounds to be evaluated are obtained as 10 μL of 10 mM stock dissolved in 100% DMSO. Using a Biomek 2000 liquid handling robot, serial dilutions are made to yield 10, 1, 0.1, 0.01 and 0.001 μM final compound dilutions added as 5 μL additions to Falcon U bottom plates. […] A routine screening assay will consist of 32 compounds, which equals 4 assay plates. • 3. Assay plate maps are set up according to the following pattern
• 4. […] Finally 20 μL […] (0.02 μCi/μL)/10 μM cold ATP are added (equals approximately 2×10^6 CPM per well). • 6. The Falcon U-Bottom assay plate containing the above 50 μL reaction volume is vortexed and then incubated at room temperature for 2 hours. • 7. At the end of 2 hours, the reaction is stopped by the addition of 65 μL of ice cold 2 mM cold ATP (made up in assay buffer) to the assay plates using a Beckman Multimek • 8. At the same time 25 μL 100% ice cold TCA made up in distilled H2O is added to a matching number of Millipore MAPH filter plates. • 9. Using a handheld 8-channel pipettor, 100 μL of the reaction mixture is transferred from the Falcon U-Bottom Plate to the Millipore MAPH filter plates presoaked with TCA. • 10. The Millipore MAPH filter plates are mixed gently and allowed to sit at room temperature for at least 30 minutes to precipitate the proteins. • 11. After 30 minutes the filter plates are placed on a Millipore vacuum manifold and filtered at no more than 8 mm Hg as the MAPH filters tend to “air lock” at higher vacuum settings. • 12. The filter plates are sequentially washed and filtered with 2×150 μL 20% TCA, 2×150 μL 10% TCA and 2×150 μL 5% TCA (total of 6 washes per plate/900 μL per well). • 13. Plates are allowed to dry overnight at room temperature. The next day 40 μL Packard Microscint-20 Scintillation Fluid is added per well using a Titertek Multidrop dispenser; the plates are sealed and counted for 2 minutes/well in a Packard Topcount NXT Scintillation Counter (CPM values/well are captured). Calculation: • 1. Counts Per Minute (CPM) data is captured and imported into a proprietary data calculation and archiving database (Activity Base by IDBS version 5.0). • 2. Column 1 for each plate reflects total phosphorylation activity of the enzyme in the absence of any inhibiting compound and thus represents 100%. Column 12 reflects any nonspecific phosphorylation/retained radioactivity activity in the absence of inhibiting compound and enzyme.

[2] = test system: Mper1-luc Rat-1 fibroblasts (P2C4); test: Cellular Circadian Assay (Mper1-luc reporter period lengthening); type: cell-based; settings: effective micromolar concentration that induced a 1 hour lengthening of circadian period
Description: The assay consists of Rat-1 fibroblasts stably expressing an Mper1-luc construct, thus enabling the determination of the rhythmic activation of the Mper1 promoter in living cells by repeatedly estimating luciferase activity by monitoring light-output over several days. The repeated measure format of the assay permits accurate and reproducible assessment of the concentration-dependent effects of CKIε inhibitors on circadian rhythm and provides the nexus for relating CKIε inhibition to circadian period alteration.
Cellular Circadian Assay Experimental Procedures
Stable transfection: Rat-1 fibroblast cultures at 30-50% confluence were co-transfected with vectors containing the Zeocin resistance selectable marker for stable transfection and an mPer-1 promoter-driven luciferase reporter gene. After 24-48 hours, cultures were split onto 96 well plates and maintained in growth media supplemented with 50-100 μg/mL Zeocin (Invitrogen #45-0430) for 10-14 days. Zeocin-resistant stable transfectants were assessed for reporter expression by supplementing growth media with 100 μM luciferin (Promega #E1603) and assaying luciferase activity on a TopCount scintillation counter (Packard Model #C384V00). […] Mper1-luc Rat-1 fibroblasts clone P2C4 was selected for compound testing. […] After synchronization, cultures were rinsed with 100 μL EMEM (Celigro #10-010-CV) for 10 minutes at room temperature. […] Compounds tested for circadian effects were added to CO2-independent media in 0.3% DMSO (final concentration). […] In Vivo luciferase activity was estimated by measuring relative light output on a TopCount scintillation counter (Packard Model #C384V00). Plates were transferred from incubator to reader using an ORCA robotic arm (Beckman Instruments) and SAMI-NT automated scheduling software (Version 3.3; SAGIAN/Beckman Instruments). Data Analysis: Microsoft Excel and XLfit (Version 2.0.9; IDBS) were used to import, manipulate and graph data. Period analysis was performed either by determining the interval between relative light output minima over several days or by Fourier Transform. […] Potency is reported as EC≡t+1h, which is presented as the effective micromolar concentration that induced a 1 hour lengthening of period. The data was analyzed by fitting a hyperbolic curve to the data expressed as period change (y-axis) versus the concentration of test compound (x-axis) in XLfit and the EC[…]t+1h was interpolated from this curve.

T1 sequence (P49674 whole entry): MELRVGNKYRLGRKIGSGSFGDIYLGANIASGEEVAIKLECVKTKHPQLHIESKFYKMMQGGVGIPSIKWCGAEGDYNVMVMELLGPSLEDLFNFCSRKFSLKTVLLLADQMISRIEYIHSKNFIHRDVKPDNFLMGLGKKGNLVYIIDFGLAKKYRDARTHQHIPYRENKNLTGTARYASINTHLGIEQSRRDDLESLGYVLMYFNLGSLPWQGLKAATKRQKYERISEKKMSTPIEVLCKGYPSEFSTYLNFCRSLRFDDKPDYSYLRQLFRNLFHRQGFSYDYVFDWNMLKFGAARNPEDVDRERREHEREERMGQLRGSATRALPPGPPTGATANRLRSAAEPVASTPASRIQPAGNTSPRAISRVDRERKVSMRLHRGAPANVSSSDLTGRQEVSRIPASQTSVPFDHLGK

Compound | IC50 [1] | Cell Assay ECΔτ+1h [2] | melting point | IC50 ([1]; phosphorylation of casein, 10 μM cold ATP, 2 hours room temperature, * denotes average of 2 or more determinations, read-out: Casein Kinase Iε 33P-ATP Filter Plate Assay IC50)
Cc1ccc(Sc2c(C(N)=O)[nH]c3cccnc23)cc1 [Ia-20, 3-p-Tolylsulfanyl-1H-pyrrolo[3,2-b]pyridine-2-carboxylic acid amide] | 261 nM | >10 µM | – | –
Cc1cccc(Sc2c(C(N)=O)[nH]c3cccnc23)c1 [Ia-22, 3-m-Tolylsulfanyl-1H-pyrrolo[3,2-b]pyridine-2-carboxylic acid amide] | 73 nM | >10 µM | – | –
COc1cccc(Sc2c(C(N)=O)[nH]c3cccnc23)c1 [Ia-15, 3-(3-Methoxy-phenylsulfanyl)-1H-pyrrolo[3,2-b]pyridine-2-carboxylic acid amide] | 109 nM | 1.1 µM | – | –
NC(=O)c1[nH]c2cccnc2c1Sc1ccc(Cl)cc1 [Ia-6, 3-(4-Chlorophenylsulfanyl)-1H-pyrrolo[3,2-b]pyridine-2-carboxylic acid amide] | 491 nM | 13.8 µM | 266 °C | –
NC(=O)c1[nH]c2cccnc2c1Sc1ccccc1N [Ia-12, 3-(2-Aminophenylsulfanyl)-1H-pyrrolo[3,2-b]pyridine-2-carboxylic acid amide] | 36 nM | 0.44 µM | – | –
NC(=O)c1[nH]c2cccnc2c1Sc1ccc(Cl)cc1Cl [Ia-7, 3-(2,4-Dichlorophenylsulfanyl)-1H-pyrrolo[3,2-b]pyridine-2-carboxylic acid amide] | > 10000 nM | – | 266 °C | –
NC(=O)c1[nH]c2cccnc2c1Sc1cccc(Br)c1 [Ia-4, 3-(3-Bromophenylsulfanyl)-1H-pyrrolo[3,2-b]pyridine-2-carboxylic acid amide] | 25 nM | 0.12 µM | – | –
NC(=O)c1[nH]c2cccnc2c1Sc1cccc2cccnc12 [Ia-25, 3-(Quinolin-8-ylsulfanyl)-1H-pyrrolo[3,2-b]pyridine-2-carboxylic acid amide] | 1550 nM | 2.26 µM | – | –
NC(=O)c1[nH]c2cccnc2c1Sc1cccc([N+](=O)[O-])c1 [Ia-18, 3-(3-Nitro-phenylsulfanyl)-1H-pyrrolo[3,2-b]pyridine-2-carboxylic acid amide] | 186 nM | >10 µM | – | –
NC(=O)c1[nH]c2cccnc2c1Sc1cccc(Cl)c1 [Ia-3, 3-(3-Chlorophenylsulfanyl)-1H-pyrrolo[3,2-b]pyridine-2-carboxylic acid amide] | 26 nM | 0.31 µM | 246.5 to 248 °C | –
NC(=O)c1[nH]c2cccnc2c1Sc1ccccc1 [Ia-1, 3-Phenylsulfanyl-1H-pyrrolo[3,2-b]pyridine-2-carboxylic acid amide] | 36 nM | 0.27 µM | 251 °C | –
NC(=O)c1[nH]c2cccnc2c1Sc1ccccc1C(F)(F)F [Ia-10, 3-(2-Trifluormethylphenylsulfanyl)-1H-pyrrolo[3,2-b]pyridine-2-carboxylic acid amide] | – | 2.94 µM | – | 2890 nM
NC(=O)c1[nH]c2cccnc2c1Sc1ccccc1Cl [Ia-5, 3-(2-Chlorophenylsulfanyl)-1H-pyrrolo[3,2-b]pyridine-2-carboxylic acid amide] | 6530 nM | 1.13 µM | – | –
NC(=O)c1[nH]c2cccnc2c1Sc1cccc(F)c1 [Ia-2, 3-(3-Fluorophenylsulfanyl)-1H-pyrrolo[3,2-b]pyridine-2-carboxylic acid amide] | 74 nM | 0.51 µM | 235 to 237 °C | –
NC(=O)c1[nH]c2cccnc2c1Sc1ccccc1F [Ia-8, 3-(2-Fluorophenylsulfanyl)-1H-pyrrolo[3,2-b]pyridine-2-carboxylic acid amide] | 531 nM | 0.75 µM | – | –
